This is an account of results in patent publication US11654097B2, “Peptide having activities of skin whitening and uses thereof” (CAREGEN CO., LTD., priority 2019, dated 2023).

The subject of test [1] is mouse melanoma cell B16F10. Description: Inhibitory effect on melanin production in α-MSH-stimulated B16F10 cells. Particulars: B16F10, 200 ng/ml α-MSH, peptide 10, 50, 100 or 200 μM, 72 hours, absorbance at 450 nm. The format is cell-based. The method, then:
A mouse melanoma cell B16F10 was seeded in a 6-well plate at a density of 5×10^4 cells/well, followed by incubation for 16 hours. Thereafter, the culture medium was replaced by a medium supplemented with 2% serum, and then 200 ng/ml of α-melanocyte-stimulating hormones (α-MSH) was added thereto to stimulate melanin production, together with each peptide of an amino acid sequence of SEQ ID NO: 1, 2, or 3 at a concentration of 10 μM, 50 μM, 100 μM, or 200 μM, respectively, followed by incubation for 72 hours. Thereafter, the incubated cells were dissolved in 1 N NaOH, and absorbance at 450 nm was measured. Moreover, an untreated group (Con) was used as a control, and only an α-MSH-treated group as a negative control and a known skin-whitening agent Arbutin (200 μM, 500 μM) and an α-MSH-treated group as a positive control were used.

In test [2] the target is T1, tyrosinase (Mus musculus, UniProt P11344).
T1 construct: The cells were lysed by adding a 0.1 M sodium phosphate buffer (pH 6.8, lysis buffer) containing 1% triton X-100; endogenous in cells; host or cells: B16F10 mouse melanoma cells stimulated with alpha-MSH
T1 sequence (P11344 19-533): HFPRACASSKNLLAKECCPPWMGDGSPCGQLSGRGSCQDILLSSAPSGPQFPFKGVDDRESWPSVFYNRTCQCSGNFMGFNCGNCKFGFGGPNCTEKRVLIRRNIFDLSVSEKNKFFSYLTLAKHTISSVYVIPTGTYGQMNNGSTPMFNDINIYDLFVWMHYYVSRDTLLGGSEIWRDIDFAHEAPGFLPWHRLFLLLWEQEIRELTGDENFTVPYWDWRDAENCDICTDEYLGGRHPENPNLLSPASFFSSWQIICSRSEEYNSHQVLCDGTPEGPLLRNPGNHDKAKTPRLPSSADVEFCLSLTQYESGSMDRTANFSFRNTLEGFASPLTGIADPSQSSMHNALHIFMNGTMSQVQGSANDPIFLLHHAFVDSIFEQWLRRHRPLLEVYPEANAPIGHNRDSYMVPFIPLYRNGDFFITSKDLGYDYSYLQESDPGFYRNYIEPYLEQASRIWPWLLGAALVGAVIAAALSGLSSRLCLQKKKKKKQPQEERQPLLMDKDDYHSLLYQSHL
Description: Inhibitory effect on tyrosinase activity in lysate of treated B16F10 cells (L-DOPA). The format is cell-based. Particulars: B16F10, 200 ng/ml α-MSH, peptide 1-160 μM, 72 hours, absorbance at 475 nm. The method, then: A mouse melanoma cell B16F10 was seeded in a 6-well plate at a density of 5×10^4 cells/well, followed by incubation for 16 hours. Thereafter, the culture medium was replaced by a medium supplemented with 2% serum, and then 200 ng/ml of α-MSH was added thereto, together with each peptide of an amino acid sequence of SEQ ID NO: 1, 2, or 3 at a concentration of 1 μM, 10 μM, 20 μM, 40 μM, 60 μM, 80 μM or 160 μM, respectively, followed by incubation for 72 hours. The 6-well plate was placed on ice, and then washed with cold PBS. The cells were lysed by adding a 0.1 M sodium phosphate buffer (pH 6.8, lysis buffer) containing 1% triton X-100. Thereafter, the cells in the well plate were scraped, and collected in a 1.5 ml tube, followed by vortexing. Centrifugation was carried out at 15,000 rpm for 10 minutes to obtain a supernatant. Thereafter, proteins in the supernatant was quantified to adjust the protein content at a predetermined amount. A buffer was added thereto, and total 90 μl of the sample was dispensed in a 96-well plate.
Thereafter, 20 μL of 10 mM L-DOPA was added to each sample, and incubated at 37° C. for 1 hour. Then, absorbance at 475 nm was measured. In addition, an untreated group (Con) was used as a control, and only α-MSH-treated group as a negative control and Arbutin (200 μM or 500 μM) and α-MSH-treated group as a positive control were used.

Test [3] relates to MITF. Briefly: Expression of melanin production-associated gene (RT-PCR) in B16F10 cells. The format is cell-based, mouse. Particulars: B16F10, 200 ng/ml α-MSH, peptide 10-200 μM, 72 hours. The method, then: (§1) A mouse melanoma cell B16F10 was seeded in a 6-well plate at a density of 5×10^4 cells/well, followed by incubation for 16 hours. Thereafter, the culture medium was replaced by a medium supplemented with 2% serum, and then 200 ng/ml of α-MSH was added thereto, together with each peptide of an amino acid sequence of SEQ ID NO: 1, 2, or 3 at a concentration of 10 μM, 50 μM, 100 μM, or 200 μM, respectively, followed by incubation for 72 hours. mRNAs were extracted from the cultured cells, and the extracted mRNAs were reverse transcribed using a cDNA synthesis kit & PCR pre-mix (Intron, Korea), thereby synthesizing cDNA, respectively. Thereafter, a polymerase chain reaction (PCR) was carried out using each cDNA and Rab27a, Melanophilin (Mlph), myosin VA, MITF, Tyrosinase, and TRP1 primers. Moreover, a control, a negative control, and a positive control were used in the same manner as in Example 2, and nucleotide sequences of the primers used herein are the same as in Table 3 below.

Test [4] relates to Mlph. The description is as above. The format is cell-based, mouse. Particulars: B16F10, 200 ng/ml α-MSH, peptide 10-200 μM, 72 hours. The method, then: as §1
Test [5] deals with tyrosinase. The test is described as above. Particulars: B16F10, 200 ng/ml α-MSH, peptide 10-200 μM, 72 hours. The format is cell-based, mouse. The method, then:
as §1

The test system of test [6] is MITF. Description: Expression of melanin production-associated protein (Western blotting) in B16F10 cells. The format is cell-based, mouse. To be noted: B16F10, 200 ng/ml α-MSH, peptide 10-200 μM, 72 hours. The method, then: (§2) A mouse melanoma cell B16F10 was seeded in a 6-well plate at a density of 5×10^4 cells/well, followed by incubation for 16 hours. Thereafter, the culture medium was replaced by a medium supplemented with 2% serum, and then 200 ng/ml of α-MSH was added thereto, together with each peptide of an amino acid sequence of SEQ ID NO: 1, 2, or 3 at a concentration of 10 μM, 50 μM, 100 μM, or 200 μM, respectively, followed by incubation for 72 hours. Thereafter, the cultured cells were lysed, and then subjected to Western blotting using antibodies (santacruz biotechnology, USA) against Mlph, Rab27a, Tyrosinase, MITF, and TRP-1. In addition, a control, a negative control, and a positive control were used in the same manner as in Example 2.
(In general: In western blotting, separated proteins are transferred to a membrane and probed.)

Test [7] concerns TRP-1. Described as above. The format is cell-based, mouse. Particulars: B16F10, 200 ng/ml α-MSH, peptide 10-200 μM, 72 hours. The method, then: as §2
Test [8] deals with tyrosinase. The description is as above. The format is cell-based, mouse. To be noted: B16F10, 200 ng/ml α-MSH, peptide 10-200 μM, 72 hours. The method, then: as §2
Test [9] concerns Rab27a. Briefly: Expression of melanin production-associated gene (RT-PCR) in B16F10 cells. The format is cell-based, mouse. Particulars: B16F10, 200 ng/ml α-MSH, peptide 10-200 μM, 72 hours. The method, then: as §1
The test system of test [10] is TRP1. The test is described as above. The format is cell-based, mouse. To be noted: B16F10, 200 ng/ml α-MSH, peptide 10-200 μM, 72 hours. The method, then:
as §1

Test [11] has as its system myosin VA. The test is described as above. The format is cell-based, mouse. Particulars: B16F10, 200 ng/ml α-MSH, peptide 10-200 μM, 72 hours. The method, then: as §1
In test [12] the test system is Mlph. Description: Expression of melanin production-associated protein (Western blotting) in B16F10 cells. To be noted: B16F10, 200 ng/ml α-MSH, peptide 10-200 μM, 72 hours. The format is cell-based, mouse. The method, then: as §2
The test system of test [13] is Rab27a. Described as above. The format is cell-based, mouse. Particulars: B16F10, 200 ng/ml α-MSH, peptide 10-200 μM, 72 hours. The method, then:
as §2

FHFIPNW [SEQ ID NO: 2]: in test [1], the melanin production result is listed as “reduced in a concentration-dependent manner”. For the same substance, the tyrosinase activity entry in test [2] is “inhibited in a concentration-dependent manner”. Moreover, the “expression of MITF gene” value in [3] is reported as “inhibited”. Moreover, in test [4], the “expression of Mlph gene” value was “inhibited”. In addition, in test [5], the “expression of tyrosinase gene” value is “inhibited”. Further, the “expression of MITF protein” value in test [6] is recorded as “inhibited”. In test [7], the “expression of TRP-1 protein” value is on record as “inhibited”. Besides, in test [8], the “expression of Tyrosinase protein” value is on record as “inhibited”.

LRKRKRRFWVL [SEQ ID NO: 1]: the melanin production result in test [1] is on record as “reduced in a concentration-dependent manner”. Besides, in test [2], the tyrosinase activity result is reported as “inhibited in a concentration-dependent manner”. In addition, in [3], the “expression of MITF gene” value is given as “inhibited”. In addition, in [9], the “expression of Rab27a gene” value is recorded as “inhibited”. For the same substance, the “expression of TRP1 gene” value in test [10] is “inhibited”. In [11], the “expression of myosin VA gene” value is on record as “inhibited”. Further, the “expression of tyrosinase gene” value in [5] was “inhibited”. Moreover, the “expression of MITF protein” value in test [6] is given as “inhibited”. Also, the “expression of Mlph protein” value in [12] is “inhibited”. Further, the “expression of Rab27a protein” value in test [13] is “inhibited”. Besides, in test [8], the “expression of Tyrosinase protein” value is reported as “inhibited”.

With WPFLRP [SEQ ID NO: 3], the melanin production entry in [1] is listed as “reduced in a concentration-dependent manner”. The tyrosinase activity result in test [2] is “inhibited in a concentration-dependent manner”. Further, the “expression of MITF gene” value in [3] is “inhibited”. For the same substance, the “expression of Mlph gene” value in test [4] is “inhibited”. In addition, the “expression of Rab27a gene” value in test [9] is “inhibited”. Besides, the “expression of TRP1 gene” value in test [10] was “inhibited”. Also, in test [11], the “expression of myosin VA gene” value is “inhibited”. Also, the “expression of tyrosinase gene” value in test [5] is given as “inhibited”. Moreover, the “expression of MITF protein” value in [6] was “inhibited”. Moreover, the “expression of Mlph protein” value in test [12] was “inhibited”. Moreover, the “expression of Rab27a protein” value in test [13] is on record as “inhibited”. The “expression of Tyrosinase protein” value in [8] is reported as “inhibited”.
